# Results: PubChem BioAssay (NCI)
#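 All cell lines were grown in 96-well plates and treated with compound for 48 hours. TGI: total growth inhibition.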
# System: K-562 leukemia
# Assay: DTP human tumour cell line panel, 48 h
row,SMILES,TGI [µM]
1,O=C1CC(=O)NC(=NN2C(=O)/C(=C/c3ccc(Cl)c(Cl)c3)N=C2c2ccccc2)N1,32.5
2,CC1=NC(C)(COC(=O)C2(C)NC(C)(CO)CO2)COC1=O (stereo not given),> 100

# System: TK-10 renal
# Assay: DTP human tumour cell line panel, 48 h
row,SMILES,TGI [µM]
1,Cc1ccc(C(=O)NCc2ccccc2)cc1N=NN(C)C,> 100
2,c1ccc2c3[nH]c(c2c1)=Nc1ccc(cc1)-c1nc2ccc(cc2o1)N=c1[nH]c(c2ccccc12)=Nc1ccc2nc(oc2c1)-c1ccc(cc1)N=3,> 100
3,COc1cccc(CC(=O)N2CCN(CCCc3ccccc3)CC2)c1,> 100
4,Cn1c(=S)c2[nH]c(SCCCc3ccccc3)nc2n(C)c1=O,78.9
5,O=C1CC(=O)NC(=NN2C(=O)/C(=C/c3ccc(Cl)c(Cl)c3)N=C2c2ccccc2)N1,> 100
6,CC1=NC(C)(COC(=O)C2(C)NC(C)(CO)CO2)COC1=O (stereo not given),> 100
7,CC(=O)NC1C(Sc2ncn(C3OC(CO)C(O)C(O)C3NC(C)=O)n2)OC(CO)C(O)C1O (stereo not given),> 100

# System: HCT-15 colon
# Assay: DTP human tumour cell line panel, 48 h
row,SMILES,TGI [µM]
1,Cc1ccc(C(=O)NCc2ccccc2)cc1N=NN(C)C,> 100
2,c1ccc2c3[nH]c(c2c1)=Nc1ccc(cc1)-c1nc2ccc(cc2o1)N=c1[nH]c(c2ccccc12)=Nc1ccc2nc(oc2c1)-c1ccc(cc1)N=3,25.3
3,COc1cccc(CC(=O)N2CCN(CCCc3ccccc3)CC2)c1,> 100
4,Cn1c(=S)c2[nH]c(SCCCc3ccccc3)nc2n(C)c1=O,> 100
5,O=C1CC(=O)NC(=NN2C(=O)/C(=C/c3ccc(Cl)c(Cl)c3)N=C2c2ccccc2)N1,> 100
6,CC1=NC(C)(COC(=O)C2(C)NC(C)(CO)CO2)COC1=O (stereo not given),> 100
7,CC(=O)NC1C(Sc2ncn(C3OC(CO)C(O)C(O)C3NC(C)=O)n2)OC(CO)C(O)C1O (stereo not given),> 100

# System: A549 NSCLC
# Assay: DTP human tumour cell line panel, 48 h
row,SMILES,TGI [µM]
1,Cc1ccc(C(=O)NCc2ccccc2)cc1N=NN(C)C,> 100
2,c1ccc2c3[nH]c(c2c1)=Nc1ccc(cc1)-c1nc2ccc(cc2o1)N=c1[nH]c(c2ccccc12)=Nc1ccc2nc(oc2c1)-c1ccc(cc1)N=3,> 100
3,COc1cccc(CC(=O)N2CCN(CCCc3ccccc3)CC2)c1,> 100
4,Cn1c(=S)c2[nH]c(SCCCc3ccccc3)nc2n(C)c1=O,72
5,O=C1CC(=O)NC(=NN2C(=O)/C(=C/c3ccc(Cl)c(Cl)c3)N=C2c2ccccc2)N1,> 100
6,CC1=NC(C)(COC(=O)C2(C)NC(C)(CO)CO2)COC1=O (stereo not given),> 100
7,CC(=O)NC1C(Sc2ncn(C3OC(CO)C(O)C(O)C3NC(C)=O)n2)OC(CO)C(O)C1O (stereo not given),> 100

# System: IGROV1 ovarian
# Assay: DTP human tumour cell line panel, 48 h
row,SMILES,TGI [µM]
1,Cc1ccc(C(=O)NCc2ccccc2)cc1N=NN(C)C,> 100
2,c1ccc2c3[nH]c(c2c1)=Nc1ccc(cc1)-c1nc2ccc(cc2o1)N=c1[nH]c(c2ccccc12)=Nc1ccc2nc(oc2c1)-c1ccc(cc1)N=3,> 100
3,COc1cccc(CC(=O)N2CCN(CCCc3ccccc3)CC2)c1,> 100
4,Cn1c(=S)c2[nH]c(SCCCc3ccccc3)nc2n(C)c1=O,> 100
5,O=C1CC(=O)NC(=NN2C(=O)/C(=C/c3ccc(Cl)c(Cl)c3)N=C2c2ccccc2)N1,> 100
6,CC1=NC(C)(COC(=O)C2(C)NC(C)(CO)CO2)COC1=O (stereo not given),> 100
7,CC(=O)NC1C(Sc2ncn(C3OC(CO)C(O)C(O)C3NC(C)=O)n2)OC(CO)C(O)C1O (stereo not given),> 100

# System: HCC-2998 colon
# Assay: DTP human tumour cell line panel, 48 h
row,SMILES,TGI [µM]
1,Cc1ccc(C(=O)NCc2ccccc2)cc1N=NN(C)C,> 100
2,c1ccc2c3[nH]c(c2c1)=Nc1ccc(cc1)-c1nc2ccc(cc2o1)N=c1[nH]c(c2ccccc12)=Nc1ccc2nc(oc2c1)-c1ccc(cc1)N=3,42.7
3,COc1cccc(CC(=O)N2CCN(CCCc3ccccc3)CC2)c1,> 100
4,O=C1CC(=O)NC(=NN2C(=O)/C(=C/c3ccc(Cl)c(Cl)c3)N=C2c2ccccc2)N1,39.6
5,CC1=NC(C)(COC(=O)C2(C)NC(C)(CO)CO2)COC1=O (stereo not given),> 100
6,CC(=O)NC1C(Sc2ncn(C3OC(CO)C(O)C(O)C3NC(C)=O)n2)OC(CO)C(O)C1O (stereo not given),> 100

# System: 786-0 renal
# Assay: DTP human tumour cell line panel, 48 h
row,SMILES,TGI [µM]
1,Cc1ccc(C(=O)NCc2ccccc2)cc1N=NN(C)C,> 100
2,c1ccc2c3[nH]c(c2c1)=Nc1ccc(cc1)-c1nc2ccc(cc2o1)N=c1[nH]c(c2ccccc12)=Nc1ccc2nc(oc2c1)-c1ccc(cc1)N=3,> 100
3,COc1cccc(CC(=O)N2CCN(CCCc3ccccc3)CC2)c1,> 100
4,Cn1c(=S)c2[nH]c(SCCCc3ccccc3)nc2n(C)c1=O,> 100
5,O=C1CC(=O)NC(=NN2C(=O)/C(=C/c3ccc(Cl)c(Cl)c3)N=C2c2ccccc2)N1,> 100
6,CC1=NC(C)(COC(=O)C2(C)NC(C)(CO)CO2)COC1=O (stereo not given),> 100
7,CC(=O)NC1C(Sc2ncn(C3OC(CO)C(O)C(O)C3NC(C)=O)n2)OC(CO)C(O)C1O (stereo not given),> 100

# System: SNB-78 CNS
# Assay: DTP human tumour cell line panel, 48 h
row,SMILES,TGI [µM]
1,Cc1ccc(C(=O)NCc2ccccc2)cc1N=NN(C)C,> 100

# System: NCI-H226 lung
# Assay: DTP human tumour cell line panel, 48 h
row,SMILES,TGI [µM]
1,Cc1ccc(C(=O)NCc2ccccc2)cc1N=NN(C)C,> 100
2,c1ccc2c3[nH]c(c2c1)=Nc1ccc(cc1)-c1nc2ccc(cc2o1)N=c1[nH]c(c2ccccc12)=Nc1ccc2nc(oc2c1)-c1ccc(cc1)N=3,> 100
3,COc1cccc(CC(=O)N2CCN(CCCc3ccccc3)CC2)c1,> 100
4,Cn1c(=S)c2[nH]c(SCCCc3ccccc3)nc2n(C)c1=O,81.1
5,O=C1CC(=O)NC(=NN2C(=O)/C(=C/c3ccc(Cl)c(Cl)c3)N=C2c2ccccc2)N1,> 100
6,CC1=NC(C)(COC(=O)C2(C)NC(C)(CO)CO2)COC1=O (stereo not given),> 100
